According to ChEMBL document CHEMBL1201862, “PubChem BioAssay data set” (2004):
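Interpolation was linear, between the two tested concentrations surrounding the appropriate level; five concentrations were tested over 48 hours in 96-well plates. GI50 marks 50% less growth.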 Calls of active or inactive are those of the source. No stated cut-off is given here; in the data, active = GI50 up to about 1.1 µM and inactive = higher.

How the values were obtained:
Assay in all cases: inhibition of tumour cell growth, NCI panel, 48 h
DMS-114 = system: DMS-114
HCC 2998 = system: HCC 2998
HOP-92 = system: HOP-92
IGROV-1 = system: IGROV-1
KM12 = system: KM12
LOX IMVI = system: LOX IMVI
LXFL 529 = system: LXFL 529
MOLT-4 = system: MOLT-4
OVCAR-3 = system: OVCAR-3
RPMI-8226 = system: RPMI-8226
SNB-75 = system: SNB-75
SW-620 = system: SW-620
TK-10 = system: TK-10
UACC-257 = system: UACC-257
HL-60 = system: HL-60
K562 = system: K562

Measured: GI50

S=c1sc2c(Cl)ncnc2n1-c1ccccc1
inactive: DMS-114 13.6 µM | HCC 2998 17.1 µM | HOP-92 19.7 µM | IGROV-1 15 µM | KM12 17.2 µM | LOX IMVI 4.28 µM | LXFL 529 12.4 µM | MOLT-4 18.2 µM | OVCAR-3 15.4 µM | RPMI-8226 23.8 µM | SNB-75 14 µM | SW-620 17.4 µM | TK-10 17.8 µM | UACC-257 15.5 µM

CSC1CC2C(CC1(C)SC)C2(C)C (stereo unspecified)
inactive: HCC 2998 87.1 µM | HL-60 20.2 µM | HOP-92 16.3 µM | IGROV-1 42.8 µM | K562 24.3 µM | KM12 48.2 µM | LOX IMVI 30.7 µM | LXFL 529 > 100 µM | MOLT-4 22.6 µM | OVCAR-3 37.9 µM | RPMI-8226 24.3 µM | SNB-75 23.2 µM | SW-620 > 100 µM | TK-10 > 100 µM | UACC-257 29.9 µM

COc1cc(-c2cc(=O)c3cc(C)c(C)c(C(=O)O)c3o2)cc(OC)c1OC
inactive: DMS-114 > 100 µM | HCC 2998 > 100 µM | HOP-92 > 100 µM | IGROV-1 > 100 µM | K562 > 100 µM | KM12 > 100 µM | LOX IMVI > 100 µM | LXFL 529 > 100 µM | MOLT-4 > 100 µM | OVCAR-3 > 100 µM | RPMI-8226 > 100 µM | SNB-75 2.32 µM | SW-620 > 100 µM | TK-10 > 100 µM | UACC-257 > 100 µM

CC(=O)O[C@H]1CCC2[C@@H]3CCC4=C(O)c5nocc5C[C@]4(C)C3CC[C@@]21C (stereo partly specified)
inactive: DMS-114 > 100 µM | HOP-92 > 100 µM | IGROV-1 > 100 µM | K562 > 100 µM | KM12 > 100 µM | LOX IMVI > 100 µM | LXFL 529 > 100 µM | MOLT-4 > 100 µM | OVCAR-3 > 100 µM | RPMI-8226 > 100 µM | SNB-75 > 100 µM | SW-620 > 100 µM | TK-10 > 100 µM | UACC-257 > 100 µM

CCCC(=O)c1c(NOC2OC(COC(C)=O)C(OC(C)=O)C(OC(C)=O)C2OC(C)=O)nc(OC)n(C)c1=O (stereo unspecified)
inactive: DMS-114 > 100 µM | HCC 2998 > 100 µM | IGROV-1 > 100 µM | K562 > 100 µM | KM12 > 100 µM | LOX IMVI > 100 µM | LXFL 529 > 100 µM | MOLT-4 > 100 µM | SNB-75 > 100 µM | SW-620 > 100 µM | TK-10 > 100 µM

CCCCN(CC)CC(C(C)=O)c1c(O)c2ccccc2oc1=O (stereo unspecified)
inactive: DMS-114 > 100 µM | HCC 2998 > 100 µM | HL-60 > 100 µM | IGROV-1 > 100 µM | K562 > 100 µM | KM12 > 100 µM | LOX IMVI > 100 µM | LXFL 529 > 100 µM | MOLT-4 > 100 µM | OVCAR-3 > 100 µM | RPMI-8226 > 100 µM | SNB-75 > 100 µM | SW-620 > 100 µM | TK-10 > 100 µM | UACC-257 > 100 µM

O=c1[nH]cnc2c1nnn2C1C=C(CO)C(O)C1O (stereo unspecified)
inactive: DMS-114 59.2 µM | HCC 2998 > 100 µM | HOP-92 > 100 µM | IGROV-1 > 100 µM | K562 > 100 µM | KM12 > 100 µM | LOX IMVI 30.8 µM | LXFL 529 > 100 µM | MOLT-4 > 100 µM | OVCAR-3 > 100 µM | RPMI-8226 > 100 µM | SNB-75 > 100 µM | SW-620 > 10 µM | TK-10 > 100 µM | UACC-257 > 100 µM

Cc1ccc(S(=O)(=O)OCC23CCC(C4CC42)C2CC23)cc1 (stereo unspecified)
inactive: DMS-114 37.5 µM | HCC 2998 > 100 µM | HL-60 17.7 µM | HOP-92 29.2 µM | IGROV-1 > 100 µM | K562 52.4 µM | LOX IMVI > 100 µM | LXFL 529 65 µM | MOLT-4 50.8 µM | OVCAR-3 38.5 µM | RPMI-8226 36.3 µM | SW-620 > 100 µM | TK-10 > 100 µM | UACC-257 7.01 µM

Cc1ccc(NCC(=O)N2CC(=O)Nc3ccccc32)c(C)c1
inactive: HCC 2998 > 100 µM | HL-60 > 100 µM | HOP-92 > 100 µM | K562 > 100 µM | KM12 > 100 µM | LOX IMVI > 100 µM | LXFL 529 > 100 µM | MOLT-4 > 100 µM | OVCAR-3 > 100 µM | RPMI-8226 > 100 µM | SNB-75 > 100 µM | SW-620 > 100 µM | TK-10 > 100 µM | UACC-257 > 100 µM

CCOC(=O)C(C(=O)c1ccccc1-c1ccccc1C(=O)O)=P(c1ccccc1)(c1ccccc1)c1ccccc1
inactive: DMS-114 20.1 µM | HCC 2998 22.3 µM | HL-60 19.8 µM | IGROV-1 20.6 µM | K562 20 µM | LOX IMVI 20.3 µM | LXFL 529 24.9 µM | MOLT-4 24.2 µM | OVCAR-3 25.1 µM | RPMI-8226 13.9 µM | SNB-75 12.8 µM | SW-620 31.3 µM | TK-10 80.4 µM | UACC-257 25.5 µM
